Assay results taken from patent US8017585B2, “CXCR4 antagonist and use thereof” (priority 2002, dated 2011).
Bridge positions count the residues as written; N and C are the ends. Square brackets hold non-standard residues; d marks the D form. Peptide text beside a SMILES is read from it. * marks the point of attachment. 2Nal = N[C@@H](Cc1ccc2ccccc2c1)C(=O)O; Benzoyl(4-F) = O=C(c1ccc(F)cc1)*; Cit = NC(=O)NCCC[C@H](N)C(=O)O

Experiments:
[1] = test system: human breast cancer MDA-MB-231 cells; assay: Inhibition of CXCL12-induced breast cancer cell migration (Transwell); format: cell-based; conditions: 10 nM of the antagonist; 100 nM CXCL12; 15 hours
Experimental: Transwell filter (polycarbonate filter, 8 μm diameter, Costar Company) was treated at 37° C. for 6 hours in 10 μg/mL fibronectin solution and air-dried. 100 nM of CXCL12 (R&D System Company) and 600 μL/well of buffer-A (0.1% bovine serum albumin, DMEM (GibcoBRL) containing 12 mM HEPES) containing the test compound were added to the lower chamber of the Transwell. The test compound and human breast cancer MDA-MB-231 cells (purchased from American Tissue Culture Collection), and 100 μL/well of buffer A containing 2×10^6 cells/mL were added to the upper chamber. […] Cutting off the filter part, adding 0.1 M sodium citrate/50% ethanol solution, and eluting crystal violet absorption at 550 nm was measured. […]
After 15 hours' incubation at 37° C. in 5% CO2 incubator, the upper surface of the filter was wiped and the cell was removed, and then the cell on the lower surface of the filter was fixed and stained with 25% methanol solution containing 0.5% crystal violet (Wako Pure Chemical Ind.), washed by distilled water and air-dried. Cutting off the filter part, adding 0.1 M sodium citrate/50% ethanol solution, and eluting crystal violet absorption at 550 nm was measured. […]

[2] = test system: Jurkat human T lymphocyte cell lines; conditions: read-out: IC50 value, inhibition of SDF-1α-induced Jurkat cell migration; SDF-1α 1 ng/mL; 4 hours
Experimental: RPMI-1640 and fetal calf serum (FCS) was purchased from BioWhittaker, penicillin-streptomycin solution, RPMI-1640 (without phenol red) and HEPES from Invitrogen, BSA from Sigma, and, human SDF-1α (CXCL12) from Genzyme. Jurkat human T lymphocyte cell lines were purchased from ATCC and incubated in RPMI-1640 10% FCS.
Using 24-wells Transwell (Costar, polycarbonate membrane, pore size 5 μm), migrating reaction was performed. 600 μL of SDF-1α (final concentration 1 ng/mL) was added to the lower layer of Transwell, 5×10^5 cells (200 μL) was added to the insert, and was reacted at 37° C. for 4 hours. The cells were pre-incubated with drugs at 37° C. for 30 minutes. The migrating reaction was made in RPMI-1640 culture media containing 20 mmol/L HEPES, 0.5% BSA. The cells migrated to the lower layer were recovered, and the number of the cells was counted by Coulter Counter. The inhibitory rate (%) against the migration by the drug of each concentration was calculated by the following formula, and IC50 value was calculated from such inhibitory rate.

For `N=C(N)NCCC[C@H](NC(=O)[C@@H]1CSSC[C@H](NC(=O)[C@H](Cc2ccc3ccccc3c2)NC(=O)[C@H](CCCNC(=N)N)NC(=O)[C@H](CCCNC(=N)N)NC(=O)c2ccc(F)cc2)C(=O)N[C@@H](Cc2ccc(O)cc2)C(=O)N[C@@H](CCCNC(N)=O)C(=O)N[C@@H](CCCCN)C(=O)N[C@H](CCCCN)C(=O)N2CCC[C@H]2C(=O)N[C@@H](Cc2ccc(O)cc2)C(=O)N[C@@H](CCCNC(=N)N)C(=O)N[C@@H](CCCNC(N)=O)C(=O)N1)C(N)=O` [4F-benzoyl-TN14003, 4F-benzoyl-Arg-Arg-Nal-Cys-Tyr-Cit-Lys-DLys-Pro-Tyr-Arg-Cit-Cys-Arg-NH2] ({Benzoyl(4-F)}-RR[2Nal]CY[Cit]K[dK]PYR[Cit]CR-NH2; disulfide 4-13), the “CXCL12-induced migration of MDA-MB-231 cells” value [1] was “inhibited” and the IC50 [2] was 0.65 nM.
